Source: patent publication US20230068020A1, “MACROLIDE COMPOUND AND ITS USE OF TREATMENT CHRONIC RESPIRATORY DISEASE” (priority 2020, published 2023)
Converted amounts (≈) assume the structure as drawn.

Tests used:
Assay type in all cases: cell-based
[1] = tested on: THP-1 cell; assay: Differentiation of monocyte to macrophage in THP-1 cell line; settings: Homo sapiens; for EC50: THP-1 differentiate to macrophage, PMA, 96 hrs incubation; for Emax: ratio of best effect of compound to that of erythromycin 100 uM, THP-1 differentiation, read-out: Maximal activation level
Description: The THP-1 cell line was purchased from ATCC (American Type Culture Collection, Manassas, Va.). Cells were maintained in growth medium (RPMI-1640) with supplemented with 10% heat inactivated bovine serum, 100× Glutamax medium and 0.05 mM β-Mercaptoethanol at 37° C. under 5% CO2. Compounds were dissolved in 0.1% DMSO. Erythromycin was used as a positive control.
For the assessment of the effect of compounds of the present invention on differentiation of monocyte to macrophage in THP-1 cell line, cells were collected and centrifuged at 900 rpm for 4 minutes. The cell density was adjusted to 2.5×10^5/mL. cell suspension of 400 μL was added to each well of 48-well plate following the plate layout. PMA 1 mg, a compound can induce monocyte differentiation, was dissolved in 10 mL DMSO to form 100 μg/mL solution and aliquote it into 1 mL per vial. 1 mL solution can be further aliquoted into 10 μL per vial and stored the aliquots at −20° C. Make 10-fold dilution of PMA with DMSO and then 500-fold dilution with complete medium. 50 μL solution were then added to each well of 48-well plate following the plate layout. Erythromycin and compounds of examples at stock concentration of 10 mM was serially diluted at 10-fold in DMSO. 50 μL solution was added to each well of 48-well plate following the plate layout. After 96 hrs incubation at 37° C., 5% CO2, the plate was washed with DPBS for three times to remove non-adherent cells for three times. Complete medium 180 μL and alarmar blue 20 μL was added to each well. The fluorescent intensity was read at excitation 530 nm and emission 590 nm using PerkinElmer Victor3 after 3 hours plate incubation.
The differentiation activity of compounds of Examples is compared to that of 100 μM erythromycin and the results are shown in FIG. 1 and Table 3.

[2] = tested on: THP-1 cell; assay: Cell viability (LD50) in THP-1 differentiation test; settings: human
Description: The medium lethal dose (LD50) is the dosage of a compound that reduces the cell viability by 50%, and is determined using non-linear logistic regression.

[3] = tested on: Acinetobacter baumanii ATCC 17978; assay: Antibacterial activity, agar dilution MIC; settings: Acinetobacter baumannii, ATCC17978, 20-24 hrs incubation, read-out: minimum inhibitory concentration MIC
Description: (§1) The antibacterial activity of Erythromycin and compounds of examples were evaluated by the agar dilution method, following the guidelines of the CLSI. […] Briefly, bacteria were grown overnight in adapted media (MHIIA with 5% of sheep blood for Streptococcus pneumoniae and Haemophilus influenzae, and MHIIA for the other bacteria strains) at 35° C., 5% CO2.
(§2) Cultures were centrifuged at 3000×g for 15 min. Pellets were diluted with 5 mls cold PBS and the OD600nm was adjusted to 10^8 CFU.mL^−1 with a spectrometer. Bacteria were then added to 96-well test plates. Compounds were diluted in DMSO in a 2 fold steps from 20 mg/ml in DMSO in 96 well plated and transferred to the test plate. During the incubation, the plate was maintained at 35° C., 5% CO2.
(§3) The MICs for Erythromycin and compounds of examples were determined after 20-24 hrs incubation.

[4] = tested on: Acinetobacter baumannii ATCC-BAA-1605; assay: Antibacterial activity, agar dilution MIC; settings: ATCCBAA1605, 20-24 hrs incubation, read-out: minimum inhibitory concentration MIC
Description: as §1, §2, §3

[5] = tested on: Enterococcus faecalis ATCC 29212; assay: Antibacterial activity, agar dilution MIC; settings: ATCC29212, 20-24 hrs incubation, read-out: minimum inhibitory concentration MIC
Description: as §1, §2, §3

[6] = tested on: Haemophilus influenzae ATCC 49247; assay: Antibacterial activity, agar dilution MIC; settings: ATCC49247, 20-24 hrs incubation, read-out: minimum inhibitory concentration MIC
Description: as §1, §2, §3

[7] = tested on: Moraxella catarrhalis ATCC 43617; assay: Antibacterial activity, agar dilution MIC; settings: ATCC43617, 20-24 hrs incubation, read-out: minimum inhibitory concentration MIC
Description: as §1, §2, §3

[8] = tested on: Staphylococcus aureus ATCC 29213; assay: Antibacterial activity, agar dilution MIC; settings: ATCC29213, 20-24 hrs incubation, read-out: minimum inhibitory concentration MIC
Description: as §1, §2, §3

[9] = tested on: Staphylococcus aureus NRS 384; assay: Antibacterial activity, agar dilution MIC; settings: NRS384, 20-24 hrs incubation, read-out: minimum inhibitory concentration MIC
Description: as §1, §2, §3

[10] = tested on: Streptococcus pneumoniae ATCC 49619; assay: Antibacterial activity, agar dilution MIC; settings: ATCC49619, 20-24 hrs incubation, read-out: minimum inhibitory concentration MIC
Description: as §1, §2, §3

[11] = tested on: Streptococcus pneumoniae ATCC 6301; assay: Antibacterial activity, agar dilution MIC; settings: ATCC6301, 20-24 hrs incubation, read-out: minimum inhibitory concentration MIC
Description: as §1, §2, §3

[12] = tested on: Streptococcus pyogenes ATCC BAA-572; assay: Antibacterial activity, agar dilution MIC; settings: ATCCBAA572, 20-24 hrs incubation, read-out: minimum inhibitory concentration MIC
Description: as §1, §2, §3

[13] = tested on: IL-8 expression in BEAS-2B cell; assay: LPS induced IL-8 release by BEAS-2B (ELISA)
Description: The inhibitory effect of compounds of Examples on the IL-8 expression in BEAS-2B cell was tested using the following method. BEAS-2B was purchased from ATCC (American Type Culture Collection, Manassas, Va.). Cells were maintained in growth medium (LHC-9) and cultured at 37° C. under 5% CO2. Compounds were dissolved in 0.1% DMSO. Erythromycin was used as a positive control.
For the assessment of the effect of compounds of Examples on IL-8 expression inhibition in BEAS-2B cell line, cells were plated in 24 well plate at a density of 100,000/mL, in a final volume of 1 mL of assay medium. Cells were incubated at 37° C., 5% CO2 for 1 day. After the incubation, compounds were added at day 2 and LPS was added at day 3. A compound source plate was prepared by triplicate five-point 10-fold or 2-fold serial dilutions in DMSO, beginning at 1 mM (final top concentration of compounds of Examples in the assay was 100 μM and the DMSO was 0.1%). The positive control consisted of cells treated with 100 μM erythromycin and negative control was consisted of 0.1% DMSO treated cells. LPS stock solution at 5 mg/mL was made by dissolving 10 mg of LPS powder into 2 mL of ddH2O and aliquoted to 100 μL per vial. Final concentration of LPS in the assay was […] by making 125-fold dilution of stock solution with medium.
Specific immunoreactivity for IL-8 in culture supernatants were measured by a commercially available ELISA kits (R&D Systems, Inc., Minneapolis, Minn.). Each sample was assayed in duplicates as recommended by the manufacture. The concentration of compounds of Examples inhibiting IL-8 production on BEAS-2B by 10% was estimated from a 4-parametric of the normalized dose response curve. (IC10)

[14] = tested on: BEAS-2B cell; assay: Cell viability (LD10) in BEAS-2B IL-8 test; settings: BEAS-2B cell viability
Text: The lethal dose (LD10) is the dosage of a compound that reduces the cell viability by […], and is estimated from non-linear logistic regression.

SMILES | EC50 [1] [µM] | Emax [1] [%] | LD50 [2] [µM] | further results
CC[C@H]1OC(=O)[C@H](C)[C@@H](OC2CC(C)(OC)C(O)C(C)O2)[C@H](C)[C@@H](OC2CC(NC)CC(C)O2)[C@@](C)(O)C[C@@H](C)[C@H](O)[C@H](C)[C@@H](O)[C@]1(C)O (stereo partly shown) [LY101-31] | 32.8 ± 2.5 | 620 ± 150 | 115.0 ± 10.4 | –
CC[C@H]1OC(=O)[C@H](C)[C@@H](OC2CC(C)(OC)C(O)C(C)O2)[C@H](C)[C@@H](OC2CC(N(C)C)CC(C)O2)[C@@](C)(O)CC(C)[C@H](N)[C@H](C)[C@@H](O)[C@]1(C)O (stereo partly shown) [LY101-30] | 36.8 ± 20.1 | 610 ± 120 | 65.3 ± 7.1 | –
CC[C@H]1OC(=O)[C@H](C)[C@@H](O[C@H]2C[C@@](C)(OC)[C@@H](O)[C@H](C)O2)[C@H](C)[C@@H](O[C@H]2C[C@@H](N(C)C)C[C@@H](C)O2)[C@](C)(O)C[C@@H](C)C(=O)[C@H](C)[C@@H](O)[C@]1(C)O [LY101-2, (3R,4S,5S,6R,9R,11R,12R,13S,14R)-6-(((2S,4S,6R)-4-(dimethylamino)-6-methyltetrahydro-2H-pyran-2-yl)oxy)-14-ethyl-7,12,13-trihydroxy-4-(((2R,4R,5S,6S)-5-hydroxy-4-methoxy-4,6-dimethyltetrahydro-2H-pyran-2-yl)oxy)-3,5,7,9,11,13-hexamethyloxacyclotetradecane-2,10-dione] | 0.3 ± 0.03 | 650 ± 170 | 4.6 ± 1.3 | MIC [3]: > 128 µg/mL; MIC [4]: > 128 µg/mL; MIC [5]: > 128 µg/mL; MIC [6]: > 128 µg/mL; MIC [7]: > 128 µg/mL; MIC [8]: 64 µg/mL (≈ 89.1 µM); MIC [9]: > 128 µg/mL; MIC [10]: 16 µg/mL (≈ 22.3 µM); MIC [11]: 64 µg/mL (≈ 89.1 µM); MIC [12]: 64 µg/mL (≈ 89.1 µM)
CC[C@H]1OC(=O)[C@H](C)[C@@H](OC2CC(C)(OC)C(O)C(C)O2)[C@H](C)[C@@H](OC2CC(N(C)C(C)C)CC(C)O2)[C@@](C)(O)C[C@@H](C)CN(C)[C@H](C)[C@@H](O)[C@]1(C)O (stereo partly shown) [LY101-47] | 4.3 ± 1.8 | 310 ± 110 | 64.7 ± 17.9 | –
CC[C@H]1OC(=O)[C@H](C)[C@@H](OC2CC(C)(OC)C(O)C(C)O2)[C@H](C)[C@@H](OC2CC(N(C)C(C)=O)CC(C)O2)[C@@](C)(O)C[C@@H](C)[C@H](O)[C@H](C)[C@@H](O)[C@]1(C)O (stereo partly shown) [LY101-33] | 22.6 ± 5.7 | 314 ± 1 | 110.0 ± 12.1 | Maximum Inhibition ([13]; IL-8 expression in BEAS-2B cells, LPS): 25%; IC10 ([13]; concentration inhibiting IL-8 production on BEAS-2B by 10%, LPS 20 μg/mL): 20 µM; LD10 [14]: 60 µM
CC[C@H]1OC(=O)[C@H](C)[C@@H](OC2CC(C)(OC)C(O)C(C)O2)[C@H](C)[C@@H](OC2CC(N(C)C)CC(C)O2)[C@@](C)(O)C[C@@H](C)CN(C)[C@H](C)[C@@H](O)[C@]1(C)O (stereo partly shown) [LY101-44] | 1.2 ± 0.2 | 450 ± 90 | 20.4 ± 8.4 | –
